The structures appear in SMILES notation. Calls of active or inactive are those of the source. No cut-off for these calls is given here.

In the assay the test system is Schizosaccharomyces pombe. Briefly: Suppression of Cl- sensitive growth defect in calcineurin gene deleted Schizosaccharomyces pombe (h+ leu1 ura4-D18 ppb1::ura4+) at 100 uM after 3 days by filter paper disk assay in presence of 0.11 M MgCl2 in YPD medium.

Take `CCCCCCCC(=O)O[C@@H]1[C@H](OC[C@@H](O)[C@@H](O)[C@H](O)[C@H](O)[C@@H](O)CO)O[C@H](COC(=O)CCCCC)[C@@H](OC(=O)CCCCC)[C@@H]1OC(=O)CCCCC`: the result was Active.
For `CCCCCCCC(=O)O[C@@H]1[C@H](OC[C@@H](O)[C@@H](O)[C@H](O)[C@H](O)CO)O[C@H](COC(=O)CCCCC)[C@@H](OC(=O)CCCCC)[C@@H]1OC(=O)CCCCC`, the outcome was Active.
To `CCCCCCCC(=O)O[C@@H]1[C@H](OC[C@@H](O)[C@@H](O)[C@H](O)CO)O[C@H](COC(=O)CCCCC)[C@@H](OC(=O)CCCCC)[C@@H]1OC(=O)CCCCC` belongs “Active”.
The same measure for `CCCCCCCC(=O)O[C@@H]1[C@H](OC[C@@H](O)[C@@H](O)CO)O[C@H](COC(=O)CCCCC)[C@@H](OC(=O)CCCCC)[C@@H]1OC(=O)CCCCC`: “Active”; for `CCCCCCCC(=O)O[C@@H]1[C@H](OC[C@@H](O)CO)O[C@H](COC(=O)CCCCC)[C@@H](OC(=O)CCCCC)[C@@H]1OC(=O)CCCCC`: “inactive”; for `CCCCCCCC(=O)O[C@@H]1[C@H](OCCO)O[C@H](COC(=O)CCCCC)[C@@H](OC(=O)CCCCC)[C@@H]1OC(=O)CCCCC`: “inactive”.

Values taken from ChEMBL document CHEMBL3588804, “Structure-activity relationship studies on acremomannolipin A, the potent calcium signal modulator with a novel glycolipid structure 3: role of the length of alditol side chain” (Bioorg Med Chem, 2015).
